Measured values reported in PMC11344821 (Scientific Reports, 2024).
Values after ≈ are worked out from the molar mass of the structure shown.

How the values were obtained:
[1] = Particle size analysis by laser diffraction; conditions: for Particle size D10 / Particle size D50 / Particle size D90 / Particle size D99 / Volume mean diameter (VMD): laser diffraction, dry dispersion 3 bar, n = 3
Protocol: Laser diffraction was employed to measure particle size using a Sympatec HELOS/BR particle size analyser equipped with a RODOS dry dispersing system with VIBRI/I feeder (Clausthat-Zellerfield, Germany). Approximately 0.5g of sample was placed on to the VIBRI/L feeder tray and dispersed through a RODOS disperser with 3 bars of pressure. The volume mean diameter (VMD) of each sample was detected on the HELOS/BR set at a measuring range of 0–175 µm. All powders were measured in triplicate (n = 3), and the software calculate the 10% (D10), median (D50), 90% (D90) particle sizes and the volume mean diameter (VMD).
Milled samples were prepared using a Fritsch Pulverisette 7 planetary ball mill (Idar-Oberstein, Germany). Powders were accurately weighed according to the BPR. The samples were transferred into agate vials (45 cm^3 Volume) along with 8 agate balls (10mm diameter). The vials were then sealed with a plastic ring to prevent atmospheric contamination.

[2] = cited from earlier work
[3] = test system: Staphylococcus aureus NCTC 10788; test: Minimum lethal concentration (MLC), sub-culture on TSA plates; format: cell-based; conditions: S. aureus NCTC 10788; tubes with no turbidity plated on TSA, overnight 37 °C; lowest concentration with no colony formation; listed as Control
Protocol: Overnight cultures of S. aureus were grown by inoculating a bacterial colony in 10 mL sterile TSB, incubated overnight at 37 °C in a shaking incubator. The overnight culture (1 × 10^9 bacterial cells/mL) was 100 folds diluted to achieve a concentration of 1 × 10^7 bacterial cells/mL.
10 sterile tubes were labelled from 1 to 10, followed by aseptic transfer of 5 mL of sterile TSB into each tube. […] 5 mL solution from tube 1 was then aseptically added to 5 mL TSB in tube 2, and thoroughly mixed and vortexed. This process was repeated for tubes 3–8. Tubes 9 and 10 were used as positive and negative controls, respectively. Once the process of dilution was completed, 100 µL from the 100 folds diluted S. aureus overnight culture was aseptically transferred into tunes 1–9, and incubated at 37 °C in a static incubator for 24 h. […] MICs were taken as the lowest concentrations with no turbidity (no visible bacterial growth).
Following this, the contents from the tubes with no turbidity were inoculated on Tryptic Soy Agar (TSA) plates, and incubated overnight at 37 °C in a static incubator.

SMILES	Particle size after ball milling relative to original size pre-ball mill ([1]; 15 min, 400 rpm, ball to powder ratio 8) [%]	Change in particle size in time-trial stability study over 28 days ([1]; day 0, 1, 3, 7, 14, 28, ANOVA, P > 0.05)	Particle size D10 [1] [μm]	Particle size D50 [1] [μm]	Particle size D90 [1] [μm]	Particle size D99 [1] [μm]	Volume mean diameter (VMD) [1] [µm]	Drug eliminated primarily through the renal route [2]	Oral bioavailability (absorbed orally) ([2]; oral route)	MLC [3] [µg/mL]
N[C@@H](CCC(=O)O)C(=O)O [Formulation G2, L-glutamic acid]	4	no significant change in size	0.54	1.62	5.46	8.31	2.35			
N[C@@H](CCC(=O)O)C(=O)O [Formulation G0, L-glutamic acid]			6.97	22.56	48.37	70.49	25.45			
CN[C@H](CC(C)C)C(=O)N[C@H]1C(=O)N[C@@H](CC(N)=O)C(=O)N[C@H]2C(=O)N[C@H]3C(=O)N[C@H](C(=O)N[C@H](C(=O)O)c4cc(O)cc(O)c4-c4cc3ccc4O)[C@H](O)c3ccc(c(Cl)c3)Oc3cc2cc(c3O[C@@H]2O[C@H](CO)[C@@H](O)[C@H](O)[C@H]2O[C@H]2C[C@](C)(N)[C@H](O)[C@H](C)O2)Oc2ccc(cc2Cl)[C@H]1O [vancomycin]							51.64	80–90%	less than 10%	6.25 (≈ 4.31 µM)
N[C@@H](CCC(=O)O)C(=O)O [Formulation G3, L-glutamic acid]			0.64	3.08	11.63	17.01	4.75			
N[C@@H](CCC(=O)O)C(=O)O [Formulation G1, L-glutamic acid]			0.99	7.86	21.15	33.58	9.67			
